Values quoted from earlier work, collected in paper PMC4549746, “Zearalenone in the Intestinal Tissues of Immature Gilts Exposed per os to Mycotoxins” (Toxins, 2015).
Where two headings read alike, the source gives them in different places.

Legend:
[1] = in vitro studies, cited from earlier work
[2] = set-up: method as in PMID 15972077; conditions: animal feed naturally contaminated with ZEN and α-ZEL; cited from earlier work

For `C[C@H]1CCCC(=O)CCC/C=C/c2cc(O)cc(O)c2C(=O)O1` [ZEN, zearalenone], which “ingested ZEN absorbed in the small intestine” value ([1]; ref 12) is on record?
The value was 55%.

What about the “ingested ZEN absorbed in the small intestine” value ([1]; ref 26) of the same molecule?
Its value is 51%.

What about the “absorbed from the duodenum” value [2] of the same molecule?
The value was 65%.
